Where “and” joins values, the source holds several entries; their conditions need not be identical. Equal entries are not always repeated. Toxic doses and inconclusive results are not listed.
System: CD2F1 mice, L1210 leukemia ip, survival T/C
Assay: NCI In Vivo Anticancer Drug Screen. Data for tumor model L1210 Leukemia (intraperitoneal) in CD2F1 (CDF1) mice
Details: higher = longer survival
Procedure, shortened: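 In this screen, transplantable tumors were grown in mice given either the compound or its vehicle. Results were expressed as the treated measurement relative to the control measurement.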

[1] = endpoint: mean survival time, dose: 100.0 mg/kg/injection, schedule: Q01DX001 (ip), vehicle: saline
[2] = endpoint: mean survival time, dose: 25.0 mg/kg/injection, schedule: Q04DX003 (ip), vehicle: saline with Tween-80
[3] = endpoint: mean survival time, dose: 50.0 mg/kg/injection, schedule: Q04DX003 (ip), vehicle: saline with Tween-80
[4] = endpoint: mean survival time, dose: 100.0 mg/kg/injection, schedule: Q04DX003 (ip), vehicle: saline with Tween-80
[5] = endpoint: mean survival time, dose: 200.0 mg/kg/injection, schedule: Q04DX003 (ip), vehicle: saline with Tween-80
[6] = endpoint: mean survival time, dose: 400.0 mg/kg/injection, schedule: Q04DX003 (ip), vehicle: saline with Tween-80
[7] = endpoint: mean survival time, dose: 200.0 mg/kg/injection, schedule: Q01DX001 (ip), vehicle: saline
[8] = endpoint: mean survival time, dose: 400.0 mg/kg/injection, schedule: Q01DX001 (ip), vehicle: saline

## [N-]=[N+]=CC(=O)CCC(N)C(=O)O (stereo not given)
endpoint: mean survival time, dose: 0.03 mg/kg/injection, schedule: Q01DX009 (ip), vehicle: saline
  T/C: 119 % of control
endpoint: mean survival time, dose: 0.05 mg/kg/injection, schedule: Q01DX009 (ip), vehicle: saline
  T/C: 116 % of control
endpoint: mean survival time, dose: 0.05 mg/kg/injection, schedule: Q01DX009 (oral), vehicle: saline
  T/C: 107 % of control
endpoint: mean survival time, dose: 0.05 mg/kg/injection, schedule: Q01DX009 (sc), vehicle: saline
  T/C: 117 % of control
endpoint: mean survival time, dose: 0.1 mg/kg/injection, schedule: Q03DX003 (ip), vehicle: saline
  T/C: 115 % of control
endpoint: mean survival time, dose: 0.1 mg/kg/injection, schedule: Q04DX003 (ip), vehicle: saline
  T/C: 117 % of control
endpoint: mean survival time, dose: 0.2 mg/kg/injection, schedule: Q01DX009 (oral), vehicle: saline
  T/C: 116 % of control
endpoint: mean survival time, dose: 0.2 mg/kg/injection, schedule: Q03DX003 (ip), vehicle: saline
  T/C: 118 % of control
endpoint: mean survival time, dose: 0.2 mg/kg/injection, schedule: Q04DX003 (ip), vehicle: saline
  T/C: 123 % of control
endpoint: mean survival time, dose: 0.4 mg/kg/injection, schedule: Q03HX024 (ip), vehicle: saline
  T/C: 162 % of control
endpoint: mean survival time, dose: 0.8 mg/kg/injection, schedule: Q01DX009 (sc), vehicle: saline
  T/C: 90 % of control
endpoint: mean survival time, dose: 0.8 mg/kg/injection, schedule: Q03HX024 (ip), vehicle: saline
  T/C: 102 % of control
endpoint: mean survival time, dose: 1.6 mg/kg/injection, schedule: Q03HX024 (ip), vehicle: saline
  T/C: 105 % of control
endpoint: mean survival time, dose: 3.1 mg/kg/injection, schedule: Q03HX016 (ip), vehicle: saline
  T/C: 119 % of control
endpoint: mean survival time, dose: 6.25 mg/kg/injection, schedule: Q03HX008 (ip), vehicle: saline
  T/C: 118 % of control
endpoint: mean survival time, dose: 6.25 mg/kg/injection, schedule: Q04DX003 (ip), vehicle: saline
  T/C: 156 % of control
endpoint: mean survival time, dose: 25.0 mg/kg/injection, schedule: Q04DX003 (ip), vehicle: saline
  T/C: 155 % of control
endpoint: mean survival time, dose: 25.0 mg/kg/injection, schedule: Q08DX002 (ip), vehicle: saline
  T/C: 150 % of control
endpoint: mean survival time, dose: 50.0 mg/kg/injection, schedule: Q01DX001 (ip), vehicle: saline
  T/C: 151 % of control
endpoint: mean survival time, dose: 50.0 mg/kg/injection, schedule: Q04DX003 (ip), vehicle: saline
  T/C: 122 % of control
endpoint: mean survival time, dose: 50.0 mg/kg/injection, schedule: Q08DX002 (ip), vehicle: saline
  T/C: 162 % of control
[1]
  T/C: 151 % of control
endpoint: mean survival time, dose: 100.0 mg/kg/injection, schedule: Q01DX001 (oral), vehicle: saline
  T/C: 115 % of control
endpoint: mean survival time, dose: 100.0 mg/kg/injection, schedule: Q08DX002 (ip), vehicle: saline
  T/C: 155 % of control
endpoint: mean survival time, dose: 200.0 mg/kg/injection, schedule: Q01DX001 (oral), vehicle: saline
  T/C: 88 % of control
endpoint: mean survival time, dose: 200.0 mg/kg/injection, schedule: Q01DX001 (sc), vehicle: saline
  T/C: 110 % of control
endpoint: mean survival time, dose: 13.0 micrograms/kg/injection, schedule: Q01DX Z (ip), vehicle: saline
  T/C: 96 % of control
endpoint: mean survival time, dose: 25.0 micrograms/kg/injection, schedule: Q01DX Z (ip), vehicle: saline
  T/C: 94 % of control
endpoint: mean survival time, dose: 50.0 micrograms/kg/injection, schedule: Q01DX Z (ip), vehicle: saline
  T/C: 100 % of control
endpoint: mean survival time, dose: 93.7 micrograms/kg/injection, schedule: Q01DX009 (ip), vehicle: saline
  T/C: 124 % of control
endpoint: median survival time, dose: 0.06 mg/kg/injection, schedule: Q01DX009 (ip), vehicle: saline
  T/C: 119 % of control
endpoint: median survival time, dose: 0.25 mg/kg/injection, schedule: Q01DX009 (ip), vehicle: saline
  T/C: 118 % of control
endpoint: median survival time, dose: 0.39 mg/kg/injection, schedule: Q01DX009 (ip), vehicle: saline
  T/C: 98 % of control
endpoint: median survival time, dose: 0.5 mg/kg/injection, schedule: Q01DX009 (ip), vehicle: saline
  T/C: 102 % of control
endpoint: median survival time, dose: 0.8 mg/kg/injection, schedule: Q01DX009 (ip), vehicle: saline
  T/C: 94 % of control and 98 % of control
endpoint: median survival time, dose: 2.5 mg/kg/injection, schedule: Q04DX003 (ip), vehicle: saline
  T/C: 152 % of control
endpoint: median survival time, dose: 5.0 mg/kg/injection, schedule: Q04DX003 (ip), vehicle: saline
  T/C: 153 % of control and 163 % of control
endpoint: median survival time, dose: 10.0 mg/kg/injection, schedule: Q04DX003 (ip), vehicle: saline
  T/C: 167 % of control and 173 % of control
endpoint: median survival time, dose: 20.0 mg/kg/injection, schedule: Q04DX003 (ip), vehicle: saline
  T/C: 184 % of control and 189 % of control
endpoint: median survival time, dose: 40.0 mg/kg/injection, schedule: Q04DX003 (ip), vehicle: saline
  T/C: 195 % of control and 205 % of control
endpoint: median survival time, dose: 100.0 mg/kg/injection, schedule: Q01DX001 (ip), vehicle: saline
  T/C: 114 % of control

## CN(C)C=NC1(c2ccccc2)CCCCC1
[2]
  T/C: 97 % of control
[3]
  T/C: 92 % of control
[4]
  T/C: 91 % of control and 97 % of control

## N=C(N)c1ccc(N=Nc2c(O)ccc3cc(O)ccc23)cc1
endpoint: median survival time, dose: 12.5 mg/kg/injection, schedule: Q01DX005 (ip), vehicle: Klucel (hydroxypropylcellulose) (HPC)
  T/C: 104 % of control and 107 % of control
endpoint: median survival time, dose: 25.0 mg/kg/injection, schedule: Q01DX005 (ip), vehicle: Klucel (hydroxypropylcellulose) (HPC)
  T/C: 100 % of control and 102 % of control
endpoint: median survival time, dose: 50.0 mg/kg/injection, schedule: Q01DX005 (ip), vehicle: Klucel (hydroxypropylcellulose) (HPC)
  T/C: 90 % of control and 103 % of control
endpoint: median survival time, dose: 100.0 mg/kg/injection, schedule: Q01DX005 (ip), vehicle: Klucel (hydroxypropylcellulose) (HPC)
  T/C: 95 % of control and 107 % of control
endpoint: median survival time, dose: 200.0 mg/kg/injection, schedule: Q01DX005 (ip), vehicle: Klucel (hydroxypropylcellulose) (HPC)
  T/C: 104 % of control

## O=C(O)C(O)(Cl)c1cccs1 (stereo not given)
[4]
  T/C: 98 % of control
[5]
  T/C: 95 % of control
[6]
  T/C: 95 % of control

## C1CC2OC2CCC2OC12 (stereo not given)
endpoint: mean survival time, dose: 100.0 mg/kg/injection, schedule: Q01DX009 (ip), vehicle: saline sonified
  T/C: 103 % of control
[4]
  T/C: 100 % of control
endpoint: mean survival time, dose: 200.0 mg/kg/injection, schedule: Q01DX009 (ip), vehicle: saline sonified
  T/C: 104 % of control
[5]
  T/C: 97 % of control
endpoint: mean survival time, dose: 400.0 mg/kg/injection, schedule: Q01DX009 (ip), vehicle: saline sonified
  T/C: 104 % of control
[6]
  T/C: 103 % of control

## COc1cc(N=C(N)N=C(N)N)c2ncccc2c1
endpoint: mean survival time, dose: 100.0 mg/kg/injection, schedule: Q04DX002 (ip), vehicle: saline
  T/C: 90 % of control
endpoint: mean survival time, dose: 200.0 mg/kg/injection, schedule: Q04DX002 (ip), vehicle: saline
  T/C: 90 % of control

## NC1CCCCC(O)CCCC1 (stereo not given)
endpoint: mean survival time, dose: 12.5 mg/kg/injection, schedule: Q01DX001 (ip), vehicle: saline with Tween-80
  T/C: 95 % of control
endpoint: mean survival time, dose: 25.0 mg/kg/injection, schedule: Q01DX001 (ip), vehicle: saline with Tween-80
  T/C: 92 % of control
endpoint: mean survival time, dose: 50.0 mg/kg/injection, schedule: Q01DX001 (ip), vehicle: saline with Tween-80
  T/C: 97 % of control

## CCC(=O)c1ccc(OCOc2ccc(C(=O)CC)cc2OC)c(OC)c1
[1]
  T/C: 94 % of control
[7]
  T/C: 96 % of control
[8]
  T/C: 91 % of control

## C[NH-].C[NH-].[Cl][Pt+2][Cl]
endpoint: mean survival time, dose: 2.5 mg/kg/injection, schedule: Q04DX003 (ip), vehicle: water
  T/C: 91 % of control
endpoint: mean survival time, dose: 5.0 mg/kg/injection, schedule: Q04DX003 (ip), vehicle: water
  T/C: 120 % of control
endpoint: mean survival time, dose: 10.0 mg/kg/injection, schedule: Q04DX003 (ip), vehicle: water
  T/C: 92 % of control

## CSc1nccc2c1ncn2C1OC(CO)C(O)C1O (stereo not given)
[1]
  T/C: 98 % of control
[7]
  T/C: 104 % of control
[8]
  T/C: 104 % of control

## CCCSCCCC(=O)O
endpoint: mean survival time, dose: 100.0 mg/kg/injection, schedule: Q04DX003 (ip), vehicle: Klucel (hydroxypropylcellulose) (HPC)
  T/C: 95 % of control
endpoint: mean survival time, dose: 200.0 mg/kg/injection, schedule: Q04DX003 (ip), vehicle: Klucel (hydroxypropylcellulose) (HPC)
  T/C: 98 % of control
endpoint: mean survival time, dose: 400.0 mg/kg/injection, schedule: Q04DX003 (ip), vehicle: Klucel (hydroxypropylcellulose) (HPC)
  T/C: 103 % of control

## CN(C)N=Nc1ccccc1C(=O)NNC(=O)CC#N
endpoint: mean survival time, dose: 18.75 mg/kg/injection, schedule: Q01DX009 (ip), vehicle: Klucel (hydroxypropylcellulose) (HPC)
  T/C: 88 % of control and 97 % of control
endpoint: mean survival time, dose: 37.5 mg/kg/injection, schedule: Q01DX009 (ip), vehicle: Klucel (hydroxypropylcellulose) (HPC)
  T/C: 92 % of control and 100 % of control
endpoint: mean survival time, dose: 75.0 mg/kg/injection, schedule: Q01DX009 (ip), vehicle: Klucel (hydroxypropylcellulose) (HPC)
  T/C: 93 % of control and 111 % of control
endpoint: mean survival time, dose: 150.0 mg/kg/injection, schedule: Q01DX009 (ip), vehicle: Klucel (hydroxypropylcellulose) (HPC)
  T/C: 113 % of control and 102 % of control
endpoint: mean survival time, dose: 300.0 mg/kg/injection, schedule: Q01DX009 (ip), vehicle: Klucel (hydroxypropylcellulose) (HPC)
  T/C: 120 % of control and 111 % of control

## CON(C)C(=O)N1c2ccccc2Sc2ccccc21
[4]
  T/C: 87 % of control
[5]
  T/C: 87 % of control

## CNC(=O)Oc1c(Cl)c(C(Cl)(Cl)Cl)nc2ccccc12
[2]
  T/C: 96 % of control
[3]
  T/C: 97 % of control
[4]
  T/C: 89 % of control

— PubChem BioAssay AID256 (DTP/NCI, 2004)
